Experimental data as given in patent US12187709B2 (Genentech, Inc., priority 2021, dated 2025).

Key:
[1] = target: Human Cbl-b (residues 40-426) (Homo sapiens (Human), UniProt Q13191); assay: Cbl-b SPR assay; type: binding; conditions: for Fold of selectivity: C-cbl SPR Kd vs Cbl-b SPR Kd; for Kd: SPR, 20° C.
How it was run: (§1)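 Binding was measured by SPR and fitted to a 1:1 model from multi-cycle kinetics with double referencing, 6 concentrations in 2-fold dilution. Alternatively, single-cycle titrations up to 500 nM (120 s contact) were fitted with kd fixed from a single-exponential fit of chaser-measured % compound bound versus time.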

[2] = target: c-Cbl (residues 47-435) (Homo sapiens (Human), UniProt P22681); assay: c-Cbl SPR assay; type: binding; conditions: 20° C.
How it was run: as §1

[3] = target: Cbl-b (Homo sapiens (Human), UniProt Q13191); assay: Cbl-b LCK Ub TR-FRET assay (Cbl-b Lck HTRF); type: biochemical; conditions: for IC50: Cbl-b LCK Ub TR-FRET; for fold-selectivity (Cbl-b over C-cbl) / (fold-selectivity) Cbl-b and C-Cbl Selectivity: ratio C-cbl Lck HTRF IC50 / Cbl-b Lck HTRF IC50
How it was run: (§2)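 Detection reagents added, brief spin, 20 min RT. IC50 fit normalized to no-LCK (low) and DMSO (high) controls.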

[4] = target: c-Cbl (Homo sapiens (Human), UniProt P22681); assay: C-Cbl LCK Ub TR-FRET assay (C-cbl Lck HTRF); type: biochemical
How it was run: as §2

Sequence of c-Cbl (residues 47-435) (P22681 47-435): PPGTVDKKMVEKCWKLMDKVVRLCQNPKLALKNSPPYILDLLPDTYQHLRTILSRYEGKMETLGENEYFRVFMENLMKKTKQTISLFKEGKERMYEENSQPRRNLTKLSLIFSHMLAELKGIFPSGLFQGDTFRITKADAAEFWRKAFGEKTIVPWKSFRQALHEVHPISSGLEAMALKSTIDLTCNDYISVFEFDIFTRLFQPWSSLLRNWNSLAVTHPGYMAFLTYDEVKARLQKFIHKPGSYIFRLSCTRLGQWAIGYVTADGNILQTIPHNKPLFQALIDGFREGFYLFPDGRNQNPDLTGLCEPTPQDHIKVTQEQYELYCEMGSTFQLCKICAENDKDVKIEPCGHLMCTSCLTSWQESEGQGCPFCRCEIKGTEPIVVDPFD
Sequence of c-Cbl (P22681 47-435): as above
Sequence of Cbl-b (Q13191 40-426): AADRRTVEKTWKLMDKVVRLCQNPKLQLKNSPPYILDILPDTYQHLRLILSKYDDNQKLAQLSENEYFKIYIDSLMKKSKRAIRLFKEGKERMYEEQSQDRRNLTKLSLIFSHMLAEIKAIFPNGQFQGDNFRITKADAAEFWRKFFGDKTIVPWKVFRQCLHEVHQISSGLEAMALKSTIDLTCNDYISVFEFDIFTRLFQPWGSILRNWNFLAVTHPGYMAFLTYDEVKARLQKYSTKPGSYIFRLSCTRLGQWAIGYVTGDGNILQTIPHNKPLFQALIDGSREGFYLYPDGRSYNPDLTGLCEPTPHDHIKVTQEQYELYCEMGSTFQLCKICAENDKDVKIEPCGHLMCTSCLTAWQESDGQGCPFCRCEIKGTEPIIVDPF
Sequence of Human Cbl-b (residues 40-426) (Q13191 40-426): as above

SMILES	Fold of selectivity [1]	Kd [1]	Kd [2]	IC50 [3]	fold-selectivity (Cbl-b over C-cbl) [3]	IC50 [4]	IC50 ([3]; Example 121)	(fold-selectivity) Cbl-b and C-Cbl Selectivity [3]
Cn1cnnc1[C@]1(c2cccc(N3Cc4c(cc(CNC5(C)CCC5)cc4C(F)(F)F)C3=O)c2)C[C@@H](OC(F)F)C1 [Compound 334, 2-(3-((1r,3r)-3-(difluoromethoxy)-1-(4-methyl-4H-1,2,4-triazol-3-yl)cyclobutyl)phenyl)-6-(((1-methylcyclobutyl)amino)methyl)-4-(trifluoromethyl)isoindolin-1-one]	26×	0.85 nM	22 nM	5.9 nM	2.5x	14 nM	–	–
CO[C@H]1C[C@](c2cc(NC(C)C)cc(N3Cc4c(cc(CNC5(C)CCC5)cc4C(F)(F)F)C3=O)c2)(c2nncn2C)C1 [Compound 215, 2-(3-(isopropylamino)-5-((1r,3r)-3-methoxy-1-(4-methyl-4H-1,2,4-triazol-3-yl)cyclobutyl)phenyl)-6-(((1-methylcyclobutyl)amino)methyl)-4-(trifluoromethyl)isoindolin-1-one]	4.1×	1.7 nM	7 nM	9.4 nM	1.3x	12 nM	–	–
CO[C@H]1C[C@](c2cccc(N3Cc4c(cc(CNCC5(C)CC5(F)F)cc4C(F)(F)F)C3=O)c2)(c2nncn2C)C1 (stereo partly drawn) [Compound 501, 6-((((2,2-difluoro-1-methylcyclopropyl)methyl)amino)methyl)-2-(3-((1r,3r)-3-methoxy-1-(4-methyl-4H-1,2,4-triazol-3-yl)cyclobutyl)phenyl)-4-(trifluoromethyl)isoindolin-1-one]	16×	4.6 nM	81 nM	–	–	52 nM	11 nM	4.8x
Cn1cnnc1C1(c2cccc(N3Cc4c(cc([C@@H](O)CO)cc4C(F)(F)F)C3=O)c2)CCC1 (single isomer, unassigned) [Compound 301]	2.8×	560 nM	1400 nM	300 nM	2.0x	590 nM	–	–
CO[C@H]1C[C@](c2cc(N[C@@H](C)CC#N)cc(N3Cc4c(cc(CNC5(C)CCC5)cc4C(F)(F)F)C3=O)c2)(c2nncn2C)C1 (single isomer, unassigned) [Compound 225]	5.6×	6.9 nM	39 nM	18 nM	4.0x	72 nM	–	–

Results, then the compound that gave them:

Fold of selectivity [1]	Kd [1]	Kd [2]	IC50 [3]	fold-selectivity (Cbl-b over C-cbl) [3]	IC50 [4]	IC50 ([3]; Example 121)	(fold-selectivity) Cbl-b and C-Cbl Selectivity [3]	SMILES
29×	3.2 nM	97 nM	23 nM	6.7x	150 nM	–	–	CO[C@H]1C[C@](c2cccc(N3Cc4c(cc([C@H](C)NC5(C)CCC5)cc4C(F)(F)F)C3=O)c2)(c2nncn2C)C1 (single isomer, unassigned) [Compound 185]
5.3×	710 nM	3800 nM	1900 nM	3.8x	7200 nM	–	–	COC[C@@H]1CC1(c1cccc(N2Cc3c(cc(CNC4(C)CCC4)cc3C(F)(F)F)C2=O)c1)c1nncn1C (single isomer, unassigned) [Compound 166]
6.5×	8.7 nM	59 nM	18 nM	2.9x	52 nM	–	–	Cn1cnnc1[C@@H](c1cc(F)cc(N2Cc3c(cc(CNC4(C)CCC4)cc3C(F)(F)F)C2=O)c1)C1COC1 (single isomer, unassigned) [Compound 152]
12×	6.1 nM	73 nM	–	–	87 nM	17 nM	5.2x	CO[C@H]1C[C@](c2cccc(N3Cc4c(cc(CNCC5(CF)CC5)cc4C(F)(F)F)C3=O)c2)(c2nncn2C)C1 [Compound 496, 6-((((1-(fluoromethyl)cyclopropyl)methyl)amino)meth-yl)-2-(3-((1r,3r)-3-methoxy-1-(4-methyl-4H-1,2,4-triazol-3-yl)cyclobutyl)phenyl)-4-(trifluoromethyl)isoindolin-1-one]
